Patent US20260022094A1, “Compounds for the Treatment of Neurodegenerative Diseases” (Celgene Corporation, priority 2022, published 2026)
pEC50: −log10 of the molar value.

Biological target: T1, S1P5 receptors (Homo sapiens, UniProt Q9H228)
T1 construct: expressed in transfected cells; host or cells: CHO cells (membranes)
Test: [35S]-GTPγS binding assay on CHO-S1P5 membranes (S1P5 agonism)
Assay type: biochemical
Details: membranes of CHO cells expressing recombinant S1P5; measure of S1P5 agonism
Experimental: CHO cells expressing recombinant S1P5 receptors were cultured in 500 cm^2 culture trays and, once confluent, rinsed and detached with cell-lifting buffer (10 mM HEPES, 154 mM NaCl, 6.85 mM EDTA, pH 7.4). Cells were then pelleted by centrifugation, resuspended, and homogenized in membrane preparation buffer (10 mM HEPES and 10 mM EDTA, pH 7.4) using a Polytron PT 1200E homogenizer (Kinematica, Luzern, Switzerland). Cellular proteins were pelleted by centrifugation at 48,000×g at 4° C. for 30 minutes. The resulting supernatant was discarded, and the pellet was re-suspended again in membrane preparation buffer, homogenized for a second time, and then centrifuged again as described above. The final cellular protein pellet was suspended in ice cold resuspension buffer (10 mM HEPES and 0.1 mM EDTA, pH 7.4), divided into aliquots, and stored at −80° C. until use.
Functional binding assays for [^35S]-GTPγS were performed in 96-well non-binding surface plates with a final volume of 200 μL. The test compounds were serially diluted in DMSO and added to assay plates using a Tecan D300E digital printer with a total volume of 0.4 μL. The control sphingosine-1-phosphate (SIP) was prepared separately by preparing a 400 µM stock solution from a 100 nmol pellet of S1P in 10 mM Na2CO3 with 2% β-cyclodextrin. The serial dilution of S1P was done using complete assay buffer (20 mM HEPES, 10 mM MgCl2, 100 mM NaCl, 1 mM EDTA, 0.1% fatty acid free bovine serum albumin (BSA), and 30 μg/mL saponin, pH 7.4) and transferred to wells already containing 0.4 μL DMSO. All the wells were then loaded to a total volume of 40 μL of complete assay buffer, except the non-specific binding (NSB) wells. For NSB wells, 40 μL/well of 50 μM GTPγS (Sigma Aldrich, cat #G8634, St. Louis, MO) was added to wells containing 0.4 μL of DMSO. The assay was started by the addition of 120 μL/well of CHO-SIP receptor membrane solution containing 40 μg/mL of membrane protein, 16.67 μM guanosine diphosphate (GDP; Sigma Aldrich, cat #G7127, St. Louis, MO), and 2.5 mg/mL of WGA PVT SPA beads in complete buffer. Assay plates were then sealed and incubated at room temperature with gentle agitation for 30 minutes. Next, 40 μL/well of 1 nM of [^35S]-GTPγS (PerkinElmer, cat #NEG030X^250UC, Waltham, MA) in basic assay buffer (20 mM HEPES, 10 mM MgCl2, 100 mM NaCl, and 1 mM EDTA, pH7.4) was added to the assay plates to yield a final concentration of […] and the plates were further incubated for 40 minutes at room temperature with gentle agitation. The assay was terminated by centrifugation of the plates at 1000 rpm for 3 minutes using an Eppendorf 5810R centrifuge (Eppendorf, Hamburg, Germany) and G protein bound radioactivity was quantitated using a MicroBeta2 microplate scintillation counter (PerkinElmer, Waltham, MA). As G protein bound radioactivity directly correlates to receptor activation and coupling to the G protein, this assay is a measure of S1P5 agonism.

T1 sequence (Q9H228 whole entry): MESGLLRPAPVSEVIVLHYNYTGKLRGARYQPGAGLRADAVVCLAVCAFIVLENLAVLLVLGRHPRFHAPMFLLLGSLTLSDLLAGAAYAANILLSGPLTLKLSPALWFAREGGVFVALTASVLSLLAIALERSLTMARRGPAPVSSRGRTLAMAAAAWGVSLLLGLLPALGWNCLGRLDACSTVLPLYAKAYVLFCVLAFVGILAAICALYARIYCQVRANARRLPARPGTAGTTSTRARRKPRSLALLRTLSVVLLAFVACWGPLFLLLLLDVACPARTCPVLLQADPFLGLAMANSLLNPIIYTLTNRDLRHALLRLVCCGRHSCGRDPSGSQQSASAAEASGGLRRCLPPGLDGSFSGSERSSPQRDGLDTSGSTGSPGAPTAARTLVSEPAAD

| SMILES | pEC50 |
| --- | --- |
| CC1(O)CN(C2CCc3cc(C#Cc4ccccc4F)ccc32)C1 (single isomer, unassigned) [Compound 1a, 1-[5-[2-(2-fluorophenyl)ethynyl]indan-1-yl]-3-methyl-azetidin-3-ol] | 7.00 to 8.00 |
| CC1(O)CN(C2CCc3cc(C#Cc4ccccc4F)ccc32)C1 (single isomer, unassigned) [Compound 1b, 1-[5-[2-(2-fluorophenyl)ethynyl]indan-1-yl]-3-methyl-azetidin-3-ol] | 7.00 to 8.00 |
| CC1(O)CN(C2CCc3cc(C#Cc4cccc(F)c4)ccc32)C1 (single isomer, unassigned) [Compound 2a, 1-[5-[2-(3-fluorophenyl)ethynyl]indan-1-yl]-3-methyl-azetidin-3-ol] | 6.00 to 7.00 |
| CC1(O)CN(C2CCc3cc(C#Cc4cccc(F)c4)ccc32)C1 (single isomer, unassigned) [Compound 2b, 1-[5-[2-(3-fluorophenyl)ethynyl]indan-1-yl]-3-methyl-azetidin-3-ol] | 7.00 to 8.00 |
| CC1(O)CN(C2CCc3cc(OCc4c(Cl)cccc4Cl)ccc32)C1 (single isomer, unassigned) [Compound 3a, 1-(5-((2,6-dichlorobenzyl)oxy)-2,3-dihydro-1H-inden-1-yl)-3-methylazetidin-3-ol] | 8.00 to 9.00 |
| CC1(O)CN(C2CCc3cc(OCc4c(Cl)cccc4Cl)ccc32)C1 (single isomer, unassigned) [Compound 3b, 1-(5-((2,6-dichlorobenzyl)oxy)-2,3-dihydro-1H-inden-1-yl)-3-methylazetidin-3-ol] | 7.00 to 8.00 |
| CC1(O)CN(C2CCc3cc(-c4ccc(C5CC5)c(F)c4)ccc32)C1 (single isomer, unassigned) [Compound 4a, 1-(5-(4-cyclopropyl-3-fluorophenyl)-2,3-dihydro-1H-inden-1-yl)-3-methyl azetidin-3-ol] | 7.00 to 8.00 |
| CC1(O)CN(C2CCc3cc(-c4ccc(C5CC5)c(F)c4)ccc32)C1 (single isomer, unassigned) [Compound 4b, 1-(5-(4-cyclopropyl-3-fluorophenyl)-2,3-dihydro-1H-inden-1-yl)-3-methyl azetidin-3-ol] | 6.00 to 7.00 |
| CC1(O)CN(C2CCc3cc(-c4ccc(C5CC5)c(Cl)c4)ccc32)C1 (single isomer, unassigned) [Compound 5a, 1-[5-(3-chloro-4-cyclopropyl-phenyl)indan-1-yl]-3-methyl-azetidin-3-ol] | 7.00 to 8.00 |
| CC1(O)CN(C2CCc3cc(-c4ccc(C5CC5)c(Cl)c4)ccc32)C1 (single isomer, unassigned) [Compound 5b, 1-[5-(3-chloro-4-cyclopropyl-phenyl)indan-1-yl]-3-methyl-azetidin-3-ol] | 7.00 to 8.00 |
| Cc1cc(-c2ccc(C3CC3)c(Cl)c2)cc2c1C(N1CC(C)(O)C1)CC2 (single isomer, unassigned) [Compound 10a, 1-[5-(3-chloro-4-cyclopropyl-phenyl)-7-methyl-indan-1-yl]-3-methyl-azetidin-3-ol] | 8.00 to 9.00 |
| Cc1cc(-c2ccc(C3CC3)c(Cl)c2)cc2c1C(N1CC(C)(O)C1)CC2 (single isomer, unassigned) [Compound 10b, 1-[5-(3-chloro-4-cyclopropyl-phenyl)-7-methyl-indan-1-yl]-3-methyl-azetidin-3-ol] | 8.00 to 9.00 |
| Cc1cc(C#Cc2cccc(F)c2)cc2c1C(N1CC(C)(O)C1)CC2 (single isomer, unassigned) [Compound 13a, 1-[5-[2-(3-fluorophenyl)ethynyl]-7-methyl-indan-1-yl]-3-methyl-azetidin-3-ol] | 7.00 to 8.00 |
| Cc1cc(C#Cc2cccc(F)c2)cc2c1C(N1CC(C)(O)C1)CC2 (single isomer, unassigned) [Compound 13b, 1-[5-[2-(3-fluorophenyl)ethynyl]-7-methyl-indan-1-yl]-3-methyl-azetidin-3-ol] | 7.00 to 8.00 |
| Cc1cc(CCc2c(Cl)cccc2Cl)cc2c1C(N1CC(C)(O)C1)CC2 (single isomer, unassigned) [Compound 14a, 1-[5-[2-(2,6-dichlorophenyl)ethyl]-7-methyl-indan-1-yl]-3-methyl-azetidin-3-ol] | 8.00 to 9.00 |
